Test results: patent US4235886A, “Cyclic hexapeptide somatostatin analogs” (Merck & Co., Inc., priority 1979, dated 1980)
Non-standard residues stand in square brackets, D forms with d. Residues, ends and D or L forms follow the SMILES beside them. dTrp(5-F) = N[C@H](Cc1c[nH]c2ccc(F)cc12)C(=O)O; Orn = NCCC[C@H](N)C(=O)O; Abu = CC[C@H](N)C(=O)O

Columns and labels:
[1] = system: Rat pituitaries (growth hormone release); assay: In vitro inhibition of growth hormone release from cultured rat pituitary cells; assay type: cell-based; conditions: multiples or fractions of the effect of somatostatin (= 1), fiducial limits in parentheses, 4 hours incubation, radioimmunoassay
Method: The instant cyclic hexapeptide analogs of somatostatin are tested and compared with the effects of somatostatin in an in vitro test for the inhibition of growth hormone. The test is described as follows:
"Rat pituitaries were isolated according to the procedures of Vale and Grant "In vitro Pituitary Hormone Secretion Assay for Hypophysiotropic Substances" in Methods in Enzymology. Vol. XXXVII, eds. O'Malley, B. W. and Hardman, J. G. (Academic Press, Inc., New York) pp. 5-93 (1975).
After 4 days in culture, the cells were washed and incubated for 4 hours in Dulbecco-modified Eagle's medium in the presence or absence of graded doses of each analog or somatostatin. The medium was then collected for subsequent growth hormone determination by a double antibody radioimmunoassay for rat growth hormone."
The test results for some of the compounds of this invention are recorded below with the results for somatostatin listed first and given the arbitrary value of 1. The results for the instant compounds are given as multiples or fractions of the effect of somatostatin. The numbers in parentheses are the fiducial limits for the number preceding. The first of the instant compounds listed is the compound prepared in Example 1-5. The compound is written slightly different, however, to conform to the order of the amino acids found in somatostatin.

[2] = system: pentagastrin evoked gastric secretion in the chronic fistula dog; assay: Inhibition of pentagastrin evoked gastric secretion in the chronic fistula dog; assay type: in vivo; conditions: dose 0.8 μg/ml./min., infusion 0-60 min, pentagastrin 2.5 μg./kg./hour i.v., relative to placebo trial; for Gastric Secretion % Inhibition, Acid Concentration, 0-30 / Gastric Secretion % Inhibition, Vol., 0-30: 0-30 min; for Gastric Secretion % Inhibition, Acid Concentration, 30-60 / Gastric Secretion % Inhibition, Vol., 30-60: 30-60 min; for Gastric Secretion % Inhibition, Acid Concentration, 60-90 / Gastric Secretion % Inhibition, Vol., 60-90: 60-90 min; for Gastric Secretion % Inhibition, Acid Concentration, 90-120 / Gastric Secretion % Inhibition, Vol., 90-120: 90-120 min; for Gastric Secretion % Inhibition, Vol., 0-30 / Gastric Secretion % Inhibition, Vol., 30-60 / Gastric Secretion % Inhibition, Vol., 60-90 / Gastric Secretion % Inhibition, Vol., 90-120: volume
Method: The effects of the instant cyclichexapeptide analogs of somatostatin are determined by the following procedure.
Compounds were tested for their ability to inhibit pentagastrin evoked gastric secretion in the chronic fistula dog. Female beagle dogs with a chronic gastric fistula were given pentagastrin (2.5 μg./kg./hour, i.v. from -60 to 120 min.) and gastric outputs were collected via the fistula cannula. Samples were analyzed at 30 minute intervals for volume (ml.) and titratable acid (mEq/L) (Titration to pH 7 with 0.01 N NaOH); total acid output (mEq) was calculated as the production of output volume and acid concentration. Test compounds were infused at a constant rate from 0 to 60 minutes. Data have been expressed as percent change of total acid output relative to a placebo trial in the same animals.

## CC(C)C[C@@H]1NC(=O)[C@@H]2CCCN2C(=O)[C@H](Cc2ccccc2)NC(=O)[C@H]([C@@H](C)O)NC(=O)[C@H](CCCCN)NC(=O)[C@@H](Cc2c[nH]c3ccccc23)NC1=O [Cyclo(Pro-Leu-D-Trp-Lys-Thr-Phe)] (cyclo(FPL[dW]KT))
[1]
  Growth Hormone Release Inhibition In Vitro: 0.29 (0.13-0.57)

## NCCCC[C@@H]1NC(=O)[C@@H](Cc2c[nH]c3ccccc23)NC(=O)[C@H](Cc2ccccc2)NC(=O)[C@@H]2CCCN2C(=O)[C@H](Cc2ccccc2)NC(=O)[C@H](CO)NC1=O [Cyclo(Pro-Phe-D-Trp-Lys-ser-Phe)] (cyclo(FPF[dW]KS))
[1]
  Growth Hormone Release Inhibition In Vitro: 1.4 (1.1-1.7)

## C[C@@H](O)[C@@H]1NC(=O)[C@H](CCCCN)NC(=O)[C@@H](Cc2c[nH]c3ccccc23)NC(=O)[C@H](Cc2ccc(O)cc2)NC(=O)[C@@H]2CCCN2C(=O)[C@H](Cc2ccccc2)NC1=O [Cyclo(Pro-Tyr-D-Trp-Lys-Thr-Phe)] (cyclo(FPY[dW]KT))
[1]
  Growth Hormone Release Inhibition In Vitro: 14.3 (8.3-33.0)
[2]
  Gastric Secretion % Inhibition, Acid Concentration, 0-30: 30%
  Gastric Secretion % Inhibition, Acid Concentration, 30-60: 49%
  Gastric Secretion % Inhibition, Acid Concentration, 60-90: 52%
  Gastric Secretion % Inhibition, Acid Concentration, 90-120: 27%
  Gastric Secretion % Inhibition, Vol., 0-30: 67%
  Gastric Secretion % Inhibition, Vol., 30-60: 87%
  Gastric Secretion % Inhibition, Vol., 60-90: 87%
  Gastric Secretion % Inhibition, Vol., 90-120: 64%

## C[C@@H](O)[C@@H]1NC(=O)[C@H](CCCN)NC(=O)[C@@H](Cc2c[nH]c3ccccc23)NC(=O)[C@H](Cc2ccccc2)NC(=O)[C@@H]2CCCN2C(=O)[C@H](Cc2ccccc2)NC1=O [Cyclo(Pro-Phe-D-Trp-Orn-Thr-Phe)] (cyclo(FPF[dW][Orn]T))
[1]
  Growth Hormone Release Inhibition In Vitro: 0.16(0.15-0.17)

## C[C@@H]1NC(=O)[C@@H]2CCCN2C(=O)[C@H](Cc2ccccc2)NC(=O)[C@H]([C@@H](C)O)NC(=O)[C@H](CCCCN)NC(=O)[C@@H](Cc2c[nH]c3ccccc23)NC1=O [Cyclo(Pro-Ala-d-Trp-Lys-Thr-Phe)] (cyclo(A[dW]KTFP))
[1]
  Growth Hormone Release Inhibition In Vitro: 0.19 (0.1-0.38)

## CC[C@@H]1NC(=O)[C@H](CCCCN)NC(=O)[C@@H](Cc2c[nH]c3ccccc23)NC(=O)[C@H](Cc2ccccc2)NC(=O)[C@@H]2CCCN2C(=O)[C@H](Cc2ccccc2)NC1=O [Cyclo(Pro-Phe-D-Trp-Lys-α-ABU-Phe)] (cyclo([Abu]FPF[dW]K))
[1]
  Growth Hormone Release Inhibition In Vitro: 0.82 (0.57-1.18)

## CC(C)C[C@@H]1NC(=O)[C@H]([C@@H](C)O)NC(=O)[C@H](CCCCN)NC(=O)[C@@H](Cc2c[nH]c3ccccc23)NC(=O)[C@H](Cc2ccccc2)NC(=O)[C@@H]2CCCN2C1=O [Cyclo(Pro-Phe-D-Trp-Lys-Thr-Leu)] (cyclo(F[dW]KTLP))
[1]
  Growth Hormone Release Inhibition In Vitro: 0.16 (0.07-0.33)

## C[C@@H](O)[C@@H]1NC(=O)[C@H](CCCCN)NC(=O)[C@@H](Cc2c[nH]c3ccccc23)NC(=O)[C@H](Cc2ccccc2)NC(=O)[C@@H]2CCCN2C(=O)[C@H](Cc2ccccc2)NC1=O [Cyclo(Pro-Phe-D-Trp-Lys-Thr-Phe)] (cyclo(PF[dW]KTF))
[1]
  Growth Hormone Release Inhibition In Vitro: 1.71 (1.31-2.32)
[2]
  Gastric Secretion % Inhibition, Acid Concentration, 0-30: 18%
  Gastric Secretion % Inhibition, Acid Concentration, 30-60: 47%
  Gastric Secretion % Inhibition, Acid Concentration, 60-90: 54%
  Gastric Secretion % Inhibition, Acid Concentration, 90-120: 68%
  Gastric Secretion % Inhibition, Vol., 0-30: 88%
  Gastric Secretion % Inhibition, Vol., 30-60: 98%
  Gastric Secretion % Inhibition, Vol., 60-90: 95%
  Gastric Secretion % Inhibition, Vol., 90-120: 86%

## C[C@@H](O)[C@@H]1NC(=O)[C@H](CCCCN)NC(=O)[C@@H](Cc2c[nH]c3ccc(F)cc23)NC(=O)[C@H](Cc2ccccc2)NC(=O)[C@@H]2CCCN2C(=O)[C@H](Cc2ccccc2)NC1=O [Cyclo(Pro-Phe-D-5F-Trp-Lys-Thr-Phe)] (cyclo(FPF[dTrp(5-F)]KT))
[1]
  Growth Hormone Release Inhibition In Vitro: 2.4 (2.1-2.8)

## C[C@@H](O)[C@@H]1NC(=O)[C@H](CCCCN)NC(=O)[C@H](Cc2c[nH]c3ccccc23)NC(=O)[C@H](Cc2ccccc2)NC(=O)[C@@H]2CCCN2C(=O)[C@H](Cc2ccccc2)NC1=O [Cyclo(Pro-Phe-L-Trp-Lys-Thr-Phe)] (cyclo(FPFWKT))
[1]
  Growth Hormone Release Inhibition In Vitro: 1.59 (1.33-1.92)
